{"source": "patent US20040266659A1", "about": "“[…] THAT ENHANCE RECALL AND LUCIDITY DURING DREAMING” (priority 2003, published 2004)", "key": {"REM sleep": {"system": "REM sleep", "conditions": "cited from earlier work"}, "lucid dreaming": {"system": "lucid dreaming", "excerpt": "These include: 1. Using a cholinergic agonist (e.g., nicotine)."}, "[1]": {"system": "normal volunteers self-selected for high dream recall and interest in lucid dreaming", "assay": "randomized, double blind, placebo-controlled crossover trial of donepizil for lucid dreaming", "format": "in vivo, human", "conditions": "for odds of lucid dreaming: placebo 0.031", "excerpt": "Subjects collected dream content and other self-report measures on three nights, separated by a washout period of at least one week. […] After each spontaneous awakening during the three nights, Ss evaluated dream content on a range of measures including bizarreness, complexity, and intensity, affect, cognitive clarity, lucidity, and control. They also estimated sleep quality, insomnia, and degree of any adverse effects."}, "[2]": {"conditions": "rivastigmin 6-12 mg dose, galantamine 8-16 mg"}}, "note": "Where two headings read alike, the source gives them in different places."}
{"compound": "COC(=O)C1=CCCN(C)C1", "note": "[arecoline]", "values": [{"measurement": "effect on REM sleep", "setting": "REM sleep; scientific literature studies", "result": "triggering/intensification of REM sleep"}]}
{"compound": "CCN(C)C(=O)Oc1cccc([C@H](C)N(C)C)c1", "note": "[Exelon, rivastigmin]", "values": [{"measurement": "efficacy compared with Aricept", "setting": "lucid dreaming; [2]", "result": "work as well as"}, {"measurement": "side effects compared with Aricept", "setting": "lucid dreaming; [2]", "result": "perhaps fewer side effects"}]}
{"compound": "C[N+](C)(C)CCOC(N)=O", "note": "[carbachol]", "values": [{"measurement": "effect on REM sleep", "setting": "REM sleep; microinjection in certain locations of the brain, such as the Pons", "result": "elicits extended periods of REM sleep"}]}
{"compound": "COc1cc2c(cc1OC)C(=O)C(CC1CCN(Cc3ccccc3)CC1)C2", "note": "(centres unmarked) [donepizil]", "values": [{"measurement": "levels of dream variables, 5 mg dose vs placebo", "setting": "[1]; 5 mg compared to placebo", "result": "significant elevations"}, {"measurement": "odds of lucid dreaming", "setting": "[1]; 5 mg", "result": 0.429}, {"measurement": "levels of dream variables, 10 mg dose vs 5 mg dose", "setting": "[1]; 10 mg compared to 5 mg", "result": "significantly higher levels"}, {"measurement": "odds of lucid dreaming", "setting": "[1]; 10 mg", "result": 0.754}, {"measurement": "self-reported cognitive clarity, self-reflection and lucidity during dreaming, compared to placebo", "setting": "[1]; both 5 and 10 mg dosages", "result": "significantly enhance"}, {"measurement": "frequency of sleep paralysis", "setting": "[1]; donepizil vs placebo", "result": "significantly elevated"}, {"measurement": "Ss reporting one or more lucid dreams on the experimental nights", "setting": "[1]; nine of 10 Ss, 5 or 10 mg at bedtime, only one S on a placebo night", "result": 90, "unit": "%"}, {"measurement": "estimated time awake during the night", "setting": "[1]; of a 9.0 hr night, placebo 126 min, p<0.05", "result": 176, "unit": "min"}, {"measurement": "incidence of adverse events, notably mild insomnia and gastrointestinal symptoms", "setting": "[1]; primarily associated with the higher dose, two subjects nausea, one vomiting", "result": "low"}, {"measurement": "cognitive clarity, lucidity, recall, control, bizarreness and visual vividness compared to placebo", "setting": "[1]; self-report after each spontaneous awakening, donepizil vs placebo", "result": "significantly elevated"}, {"measurement": "increase in estimated time awake during the night", "setting": "[1]; vs placebo, 9.0 hr night, p<0.05", "result": 40, "unit": "%"}]}
{"compound": "COc1ccc2c3c1O[C@H]1C[C@@H](O)C=C[C@@]31CCN(C)C2", "note": "[galantamine]", "values": [{"measurement": "side effects compared with Aricept", "setting": "lucid dreaming; [2]", "result": "perhaps fewer side effects"}]}
{"compound": "huperzine", "values": [{"measurement": "outcome of test for lucid dreaming enhancement", "setting": "lucid dreaming; dose correspondence with Aricept not yet worked out", "result": "promising results"}]}
